From patent US8076281B2, “Use of a ghrelin agonist to improve the catabolic effects of glucocorticoid treatment” (IPSEN Pharma, S.A.S., priority 2006, dated 2011)

Tests used:
[1] = Effects of pharmacological treatments on growth parameters in young rats; assay type: in vivo, Sprague-Dawley rats; conditions: FIG. 3; for somatic growth: young male rats, compared to SAL-treated rats
Description: Thirty-two prepubertal male Sprague-Dawley rats approximately 21 days old and weighing between 45 and 55 grams, were obtained from Harlan, Italy (S. Pietro al Natisone, ITALY). During the study, the animals were maintained in accordance with the guidelines of the Italian Ministry of Health for the care and use of laboratory animals (Decreto legge 116/92). The animals were randomly divided into two treatment groups and kept in a controlled environment at a constant temperature of 21-23° C. with 12:12 light/dark exposure continuous period wherein the light exposure began at approximately 8:00 am and ended at approximately 8:00 pm. The animals were provided with water and food ad libitum consisting of an approximate 3200 calories/kg daily diet of standard pellet chow provided by Piccioni, Gessate-Milano, Italy (containing at least 19% protein, 3% fat and 56% carbohydrate).
Beginning on the 23rd day (i.e., the animals were 23 days old), 16 of the study animals were treated intraperitoneally (Ip) daily with 40 μg/kg of either saline or dexamethasone sodium phosphate (sold under the trademark Decadron® by Merck Pharmaceuticals, West Point, Pa.). […] At irregular intervals, the cumulative food intake for a 24-hour period of time was measured. Beginning on the 46th day (i.e., the animals were 46 days old), the length of the test and control animals from nose to anus was measured (hereinafter referred to as “the nose-anal length”). […]
Unless otherwise stated, the results reported in FIGS. 3-6 are expressed as the mean±SEM of eight replicate test subjects. Data was analyzed for statistical significance by one-way ANOVA which determines the variation (variance) within the groups and how that variation translates into variation (i.e. differences) between the groups, taking into account how many subjects there are in each group. […]

[2] = 24-hour food intake and food efficiency; assay type: in vivo, Sprague-Dawley rats; conditions: for 24-h food intake: after 10 days of dexamethasone treatment, compared with saline-treated animals, FIG. 4A; for food efficiency: ratio body weight gain (g) / food intake (g), compared with saline treatment
Description: (§1) Beginning on the 23rd day (i.e., the animals were 23 days old), 16 of the study animals were treated intraperitoneally (Ip) daily with 40 μg/kg of either saline or dexamethasone sodium phosphate (sold under the trademark Decadron® by Merck Pharmaceuticals, West Point, Pa.). Beginning on the 30th day (i.e., the animals were 30 days old), the subgroup of 16 studied animals was further divided into groups of 8 and treated subcutaneously three times daily (at approximately 9:00 am, 1:00 pm and 5:00 pm) with either 80 nmoles/kg of the preferred ghrelin analog [Aib^2, Glu^3(NH-hexyl)]hGhrelin(1-28)-NH2 (SEQ ID NO:2) (IPSEN, Milford, Mass.) dissolved in a sterile saline solution with 0.25% bovine serum albumin or vehicle (the saline-bovine serum albumin solution alone). This regimen continued for 24 days during which time the studied animals were weighed two times per week. At irregular intervals, the cumulative food intake for a 24-hour period of time was measured. Beginning on the 46th day (i.e., the animals were 46 days old), the length of the test and control animals from nose to anus was measured (hereinafter referred to as “the nose-anal length”). On the 47th day (i.e., the animals were 47 days old), all food was denied to the test subjects commencing at 8:00 am. Small samples of blood were taken via percutaneous puncture of the tail to assess blood glucose levels during the treatment period.
Food efficiency was calculated as the ratio between body weight gain (in grams) and food intake (in grams) measured over the same time interval.

[3] = Effects of pharmacological treatments on plasma hormones and glucose concentrations; assay type: in vivo, Sprague-Dawley rats; conditions: for plasma IGF-1 concentration (in words): compared with saline; for plasma corticosterone (in words) / plasma insulin (in words): compared with saline / vehicle
Description: as §1
The test animals received two subcutaneous administrations of [Aib^2, Glu^3(NH-hexyl)]hGhrelin(1-28)-NH2 (SEQ ID NO:2) at approximately 9:00 am and 1:00 pm. The studied animals were sacrificed by rapid decapitation at approximately 2:00 pm, trunk blood collected for hormone level determinations, and the epididymal fat pads removed and weighed.
Samples of trunk blood were taken from the test subjects following decapitation. The blood samples were collected in tubes containing EDTA, separated by centrifugation, and stored at −20° C. Plasma insulin, IGF-1, and corticosterone levels were all measured using commercial RIA kits (Insulin and Corticosterone kits were both obtained from ICN-Biomedicals, Asse-Relegem, BELGIUM and the rIGF-1 test kit was obtained from Mediagnostic GMbH, Tubingen, GERMANY). Glucose concentration was determined using the Glucotrend® Soft Test System blood glucose meter (Roche Diagnostics, Barcelona, SPAIN).
Unless otherwise stated, the results reported in FIGS. 3-6 are expressed as the mean±SEM of eight replicate test subjects. Data was analyzed for statistical significance by one-way ANOVA which determines the variation (variance) within the groups and how that variation translates into variation (i.e. differences) between the groups, taking into account how many subjects there are in each group. […] The linear correlation analysis was performed either by Pearson's parametric test or by Spearman's nonparametric test. A P value below 0.05 was considered significant.

[4] = in the rat; cited from earlier work

| Molecule | somatic growth [1] | 24-h food intake [2] | food efficiency ([2]; FIG. 4B) | cumulative 24-hour food intake ([2]; up to 10 days from the beginning of the treatment) | plasma IGF-1 concentration (in words) [3] | plasma corticosterone (in words) [3] | plasma insulin (in words) [3] | glucocorticoid-mediated GH-inhibition [4] | growth suppression induced by DEX ([1]; concomitant treatment in DEX-treated rats) | decrease of food efficiency induced by dexamethasone ([2]; in dexamethasone-treated rats, FIG. 4B) | Glucose ([3]; at sacrifice (day 47), mean ± SEM of eight animals) [mg/dL] | suppression of the HPA axis (corticosterone) in dexamethasone-treated animals ([3]; in dexamethasone-treated animals) | IGF-1 suppression in dexamethasone-treated subjects ([3]; in dexamethasone-treated subjects) |
| --- | --- | --- | --- | --- | --- | --- | --- | --- | --- | --- | --- | --- | --- |
| C[C@@H]1C[C@H]2[C@@H]3CCC4=CC(=O)C=C[C@]4(C)[C@@]3(F)[C@@H](O)C[C@]2(C)[C@@]1(O)C(=O)CO [Dexamethasone, 9-fluoro-11β, 17, 21-trihydroxy-16a-methylpregna-1,4-diene-3,20-dione, reference compound] | significantly decreased | significant reduction | significantly reduced food efficiency | did not significantly affect | significantly reduced | suppressed almost completely | tended to increase plasma insulin concentration, but the effect did not reach statistical significance |  |  |  |  |  |  |
| GHRP-6 |  |  |  |  |  |  |  | completely counteract |  |  |  |  |  |
| [Aib^2, Glu^3(NH-hexyl)]hGhrelin(1-28)-NH2 (GXEFLSPEHQRVQQRKESKKPPAKLQPR; Aib2, Glu3 NH-hexyl, C-terminal amide; Ghrelin analog) | significantly increased | increased daily food intake | increased food efficiency |  | higher IGF-1 levels | clear-cut increase | unchanged |  | reversed | able to reverse | 122 ± 3 | not able to overcome | partially reversed |
